# Test results published in PubChem BioAssay (NCI).
#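 1) Cells in 96-well plates. 2) Compound, 48 h, 5 concentrations. 3) Linear interpolation between surrounding doses. 4) Unreached endpoint = highest concentration. GI50 = concentration required for 50% inhibition of growth. TGI marks complete inhibition of growth.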
# Tests used:
# Assay in all cases: growth of human tumour cells (NCI), 48 h
# HT29 colon = tested on: HT29 colon
# HS 578T breast = tested on: HS 578T breast
# SK-MEL-28 melanoma = tested on: SK-MEL-28 melanoma
# SW-620 colon = tested on: SW-620 colon
# CAKI-1 renal = tested on: CAKI-1 renal
# OVCAR-4 ovarian = tested on: OVCAR-4 ovarian
# OVCAR-8 ovarian = tested on: OVCAR-8 ovarian
# HOP-62 NSCLC = tested on: HOP-62 NSCLC
SMILES,TGI (HT29 colon) [µM],TGI (HS 578T breast) [µM],TGI (SK-MEL-28 melanoma) [µM],TGI (SW-620 colon) [µM],TGI (CAKI-1 renal) [µM],TGI (OVCAR-4 ovarian) [µM],TGI (OVCAR-8 ovarian) [µM],TGI (HOP-62 NSCLC) [µM],GI50 (HT29 colon) [µM],GI50 (HS 578T breast) [µM],GI50 (SK-MEL-28 melanoma) [µM],GI50 (SW-620 colon) [µM],GI50 (HOP-62 NSCLC) [µM],GI50 (CAKI-1 renal) [µM],GI50 (OVCAR-4 ovarian) [µM],GI50 (OVCAR-8 ovarian) [µM]
C/C(=N\NC(=O)CC#N)C(CN1CCCCC1)C(c1ccccc1)c1c(O)c2ccccc2oc1=O (configuration not stated),> 100,> 100,> 100,> 100,> 100,> 100,> 100,–,–,–,–,–,–,–,–,–
CCn1c(-c2c(Cl)cc(O)cc2Cl)cc2c(Cl)cc(O)cc21,6.82,> 100,10.1,41,30.5,21.7,18.7,31.5,–,–,–,–,–,–,–,–
O=C1/C(=C/c2ccc(F)c(F)c2)CN(C(=O)C(Cl)Cl)C/C1=C\c1ccc(F)c(F)c1,–,1.01,0.513,0.0554,0.551,1.24,1.31,0.745,0.0359,0.261,0.208,0.0215,0.239,0.188,0.233,0.0564
CCN(CC)CCCOc1ccc2ncnc(Nc3ccc(Oc4cccc(C(F)(F)F)c4)c(Cl)c3)c2c1,–,–,2.99,3.09,3.1,2.99,–,–,–,–,1.63,1.61,–,1.4,1.54,–
CN(C)C[C@H]1CCn2c(c(C3=C(c4cn(C)c5ccccc45)C(=O)NC3=O)c3ccccc32)C1,11.5,10.1,8.02,8.89,8.74,12.5,13.2,8.58,3.45,2.78,4.25,4.42,4.57,3.82,3.97,5.6
O=C(Nc1ccc2ncnc(Nc3ccc(Oc4cccc(F)c4)c(Cl)c3)c2c1)c1ccc(CN2CCOCC2)cc1,11.7,7.04,9.38,11.2,10.5,8.52,7.69,8.47,2.97,1.96,2.62,3.21,2.58,2.18,2.53,2.34
CCC#CC[C@H](O)C/C=C1/C(=O)C=C[C@@H]1C/C=C\CCCC(=O)OC,2.46,46.6,3.25,4.83,4.65,8.64,4.76,4.49,0.991,4.3,1.12,1.49,1.56,1.48,2.25,1.24
CCC[CH2][Sn]([CH2]CCC)([CH2]CCC)[O]C(=O)C(OC(C)=O)c1ccccc1 (configuration not stated),0.26,–,0.274,0.273,0.3,0.221,0.304,0.287,0.127,–,0.142,0.141,0.149,0.159,0.103,0.167
CC(=Nc1ccccc1)C1=C(O)C(Cc2cccc(F)c2)NC1=O (configuration not stated),13.4,> 100,–,> 100,> 100,> 100,> 100,> 100,0.0372,0.0501,–,0.0419,0.0557,0.049,0.345,0.122
Nc1ncn(C2OC(COP(=O)(O)O)C(O)C2O)c(=O)n1 (configuration not stated),> 100,> 100,> 100,> 100,> 100,> 100,> 68.9,> 100,–,–,–,–,–,–,–,–
COc1cccc(OC(=O)c2ccc(C(F)(F)F)nc2Nc2c(C)cccc2Cl)c1,> 100,94.6,71.6,> 100,48.8,30.9,46.3,82.3,26.4,24.7,20.5,46,25.9,16.3,13.8,19.5
O=C1NC(O)c2ccccc2O1 (configuration not stated),> 100,> 100,> 100,> 100,> 100,> 100,> 100,> 100,–,–,–,–,–,–,–,–
C=C1C(=O)O[C@H]2[C@H]1CC/C(COC(=O)c1cn(C)c3ccccc13)=C\CC[C@@]1(C)O[C@@H]21,1.78,9.47,3.08,1.1,–,3.04,2.4,3.76,0.526,2.39,1.55,0.301,1.81,–,1.14,0.8
c1cc(CN2CCCNCCNCCCNCC2)ccc1CN1CCCNCCNCCCNCC1,> 100,> 100,> 100,> 100,> 100,> 100,> 100,> 100,> 100,> 100,> 100,> 100,> 100,> 100,> 100,> 100
O=P(O)(O)OCC1OC(n2cnc3c(NCc4ccco4)ncnc32)C(O)C1O (configuration not stated),> 100,7.17,> 100,> 44.3,3.01,> 41,6.9,19.4,2.98,0.802,16.2,0.993,2.24,0.596,2.62,0.861
CCOc1cc(C(=O)O)c2c(ccc3ccc(OC)c(OC)c32)c1OC,> 100,> 100,> 100,> 100,> 100,> 100,> 100,> 100,–,–,–,–,–,–,–,–
O=C1Nc2ccccc2/C1=C\c1cccc(/C=C2/C(=O)Nc3ccccc32)n1,0.529,1.31,0.468,0.329,1.27,1.99,1.13,3.92,0.226,0.294,0.218,0.162,1.96,0.338,0.718,0.3

SMILES,TGI (HT29 colon) [µM],TGI (HS 578T breast) [µM],TGI (SK-MEL-28 melanoma) [µM],TGI (SW-620 colon) [µM],TGI (CAKI-1 renal) [µM],TGI (OVCAR-4 ovarian) [µM],TGI (OVCAR-8 ovarian) [µM],TGI (HOP-62 NSCLC) [µM],GI50 (HT29 colon) [µM],GI50 (HS 578T breast) [µM],GI50 (SK-MEL-28 melanoma) [µM],GI50 (SW-620 colon) [µM],GI50 (HOP-62 NSCLC) [µM],GI50 (CAKI-1 renal) [µM],GI50 (OVCAR-4 ovarian) [µM],GI50 (OVCAR-8 ovarian) [µM]
CCCCC[C@H]1CC=C2C(=O)C=C[C@@H]2CC=CCCCC(=O)O[C@@H](CCCCC)CC=C2C(=O)C=C[C@@H]2CC=CCCCC(=O)O[C@@H](CCCCC)CC=C2C(=O)C=C[C@@H]2CC=CCCCC(=O)O1,1.21,> 8.75,1.74,1.51,–,> 8.75,> 8.75,0.775,0.313,0.773,0.311,0.373,0.259,–,0.317,0.277
C[C@]12CC[C@@H]3c4ccc(O)cc4CC[C@H]3[C@@H]1CC[C@@H]2NS(=O)(=O)c1cccc(Cl)c1,6.06,13.1,5.93,15,10.6,10.5,13.3,15.3,2.47,3.09,2.24,3.91,4.46,2.97,2.2,3.27
O=C1CSC(c2ccc(-c3nc4ccccc4[nH]3)cc2)=N1,–,> 50,–,> 50,> 50,–,> 50,> 50,–,25.1,–,> 50,> 50,> 50,–,23
COC1=CC(=O)C(Br)=CC1=O,35.6,–,34,54.9,32.4,32.1,65.8,> 100,–,–,–,–,–,–,–,–
COc1cc2c3c(n(CCCCNC(=O)OC(C)(C)C)c(=O)c2cc1OC)-c1cc2c(cc1C3=O)OCO2,> 100,> 100,> 100,> 100,74.5,> 100,> 100,> 100,> 100,59,> 100,> 100,28.1,3.45,> 100,> 100
C=C1C(=O)O[C@H]2[C@H]1CC/C(Cn1cc(Cc3c[nH]c4ccccc34)nn1)=C\CC[C@@]1(C)O[C@@H]21,3.72,18.3,3.22,3.56,2.64,5.61,10.7,14.9,1.95,3.88,1.66,1.74,3.86,1.3,2.05,3.44
O=c1cc(-c2ccccc2)oc2ccc(OC/C(=N/O)c3ccc(F)cc3)cc12,41.6,–,16.2,32.8,16.2,> 50,> 50,> 50,2.1,–,3.33,2.67,8.79,3.57,25.3,8.44
COc1cccc(Sc2ccc([N+](=O)[O-])c3no[n+]([O-])c23)c1,> 55.6,61.7,14,6.14,24.1,27,24.8,50,9.8,16.2,6.52,2.5,25.2,10.5,10.1,6.22
CCN1C(=O)N(CC)C2C1NN=c1s/c(=C\c3cccs3)c(=O)n12 (configuration not stated),> 100,–,> 100,> 100,> 100,> 100,> 100,> 100,0.0557,0.112,–,0.0667,0.302,0.0745,1.82,0.424
Clc1ccccc1[C@@H]1C[C@@H]2Cc3cc(Br)c4ccccc4c3N1O2,5.19,8.82,> 100,> 100,> 100,–,> 100,> 100,2.38,3.04,6.92,3.69,5.7,4.18,–,5.45
O=C(O)CNc1ccc(Cl)c(Cl)c1,> 100,> 100,–,73.9,50.3,> 100,85.4,86.1,–,–,–,–,–,–,–,–
COc1cc(OC)cc(-c2nc3sccn3c2/C=N/N=C(N)N)c1,14.9,25.3,–,19.1,15.2,–,20.8,17,8.14,12.6,–,10,9.95,8.03,–,9.85
O=C1NC(=O)[C@@]2(CC[C@@H](O)C2)c2ccncc21,> 100,> 100,> 100,> 100,> 100,> 100,> 100,–,–,–,–,–,–,–,–,–
Cc1ccc2[nH]c3c(c2c1)N=c1ccccc1=NO3,> 100,–,> 100,> 100,47.6,> 100,43,–,76.1,–,> 100,> 100,–,10.5,27.9,17.5
S=c1nc(C(c2ccccc2)c2ccccc2)[nH][nH]1,> 100,–,> 100,> 100,–,–,> 100,> 100,–,–,–,–,–,–,–,–
c1ccc2cc(Cn3cc[n+](Cc4ccc5ccccc5c4)c3)ccc2c1,5.74,8.97,3.36,13.6,–,2.97,12.3,17,0.555,1.28,1.2,2.05,3.26,–,0.339,1.64
Cc1cn(CCC(N)C(=O)O)c(=O)[nH]c1=O (configuration not stated),> 100,> 100,> 100,> 100,–,> 100,> 100,> 100,–,–,–,–,–,–,–,–
